Experimental data published in patent US9242987B2, “Heterocyclyl pyrazolopyrimidine analogues as JAK inhibitors” (Cellzome Limited, priority 2009, dated 2016).
pIC50: −log10 of the molar value.

Columns and labels:
JAK2 = biological target: T1, JAK2 (Homo sapiens, UniProt O60674); assay: Kinobeads assay, JAK2; format: binding; details: mixed Molt4/Ramos cell lysate, dot blot detection
T1 construct: endogenous in cells; host or cells: Mixed Molt4/Ramos lysate (1:2)
Description: (§1) The compounds of the present invention as described in the previous examples were tested in a Kinobeads™ assay as described for ZAP-70 (WO-A 2007/137867). Briefly, test compounds (at various concentrations) and the affinity matrix with the immobilized aminopyrido-pyrimidine ligand 24 were added to cell lysate aliquots and allowed to bind to the proteins in the lysate sample. After the incubation time the beads with captured proteins were separated from the lysate. Bound proteins were then eluted and the presence of JAK2 and JAK3 was detected and quantified using specific antibodies in a dot blot procedure and the Odyssey infrared detection system. Dose response curves for individual kinases were generated and IC50 values calculated. Kinobeads™ assays for ZAP-70 (WO-A 2007/137867) and for kinase selectivity profiling (WO-A 2006/134056) have been previously described.
(§2) The affinity matrix was washed two times with 15 mL of 1×DP buffer containing 0.2% NP40 (IGEPAL® CA-630, Sigma, #13021) and then resuspended in 1×DP buffer containing 0.2% NP40 (3% beads slurry).
(§3) 5×DP buffer: 250 mM Tris-HCl pH 7.4, 25% Glycerol, 7.5 mM MgCl2, 750 mM NaCl, 5 mM Na3VO4; filter the 5×DP buffer through a 0.22 μm filter and store in aliquots at −80° C. The 5×DP buffer is diluted with H2O to 1×DP buffer containing 1 mM DTT and 25 mM NaF.
(§4) Stock solutions of test compounds were prepared in DMSO. In a 96 well plate 30 μL solution of diluted test compounds at 5 mM in DMSO were prepared. Starting with this solution a 1:3 dilution series (9 steps) was prepared. For control experiments (no test compound) a buffer containing 2% DMSO was used.
(§5) Molt4 cells (ATCC catalogue number CRL-1582) and Ramos cells (ATCC catalogue number CRL-1596) were grown in 1 L Spinner flasks (Integra Biosciences, #182101) in suspension in RPMI 1640 medium (Invitrogen, #21875-034) supplemented with 10% Fetal Bovine Serum (Invitrogen) at a density between 0.15×10^6 and 1.2×10^6 cells/mL. Cells were harvested by centrifugation, washed once with 1×PBS buffer (Invitrogen, #14190-094) and cell pellets were frozen in liquid nitrogen and subsequently stored at −80° C. Cells were homogenized in a Potter S homogenizer in lysis buffer: 50 mM Tris-HCl, 0.8% NP40, 5% glycerol, 150 mM NaCl, 1.5 mM MgCl2, 25 mM NaF, 1 mM sodium vanadate, 1 mM DTT, pH 7.5. One complete EDTA-free tablet (protease inhibitor cocktail, Roche Diagnostics, 1873580) per 25 mL buffer was added. The material was dounced 10 times using a mechanized POTTER S, transferred to 50 mL falcon tubes, incubated for 30 minutes on ice and spun down for 10 minutes at 20,000 g at 4° C. (10,000 rpm in Sorvall SLA600, precooled). The supernatant was transferred to an ultracentrifuge (UZ)-polycarbonate tube (Beckmann, 355654) and spun for 1 hour at 100.000 g at 4° C. (33.500 rpm in Ti50.2, precooled). The supernatant was transferred again to a fresh 50 mL falcon tube, the protein concentration was determined by a Bradford assay (BioRad) and samples containing 50 mg of protein per aliquot were prepared. The samples were immediately used for experiments or frozen in liquid nitrogen and stored frozen at −80° C.
(§6) Cell lysate (approximately 50 mg protein per plate) was thawed in a water bath at room temperature and then stored on ice. To the thawed cell lysate 1×DP 0.8% NP40 buffer containing protease inhibitors (1 tablet for 25 mL buffer; EDTA-free protease inhibitor cocktail; Roche Diagnostics 1873580) was added in order to reach a final protein concentration of 10 mg/mL total protein. The diluted cell lysate was stored on ice. Mixed Molt4/Ramos lysate was prepared by combining one volume of Molt4 lysate and two volumes of Ramos lysate (ratio 1:2).
(§7) To a 96 well filter plate (Multiscreen HTS, BV Filter Plates, Millipore #MSBVN1250) were added per well: 100 μL affinity matrix (3% beads slurry), […], of compound solution, and 50 μL of diluted lysate. […]

JAK3 = biological target: T2, JAK3 (Homo sapiens, UniProt P52333); assay: Kinobeads assay, JAK3; format: binding; details: mixed Molt4/Ramos cell lysate, dot blot detection
T2 construct: endogenous in cells; host or cells: Mixed Molt4/Ramos lysate (1:2)
T2 sequence (P52333 1-1124): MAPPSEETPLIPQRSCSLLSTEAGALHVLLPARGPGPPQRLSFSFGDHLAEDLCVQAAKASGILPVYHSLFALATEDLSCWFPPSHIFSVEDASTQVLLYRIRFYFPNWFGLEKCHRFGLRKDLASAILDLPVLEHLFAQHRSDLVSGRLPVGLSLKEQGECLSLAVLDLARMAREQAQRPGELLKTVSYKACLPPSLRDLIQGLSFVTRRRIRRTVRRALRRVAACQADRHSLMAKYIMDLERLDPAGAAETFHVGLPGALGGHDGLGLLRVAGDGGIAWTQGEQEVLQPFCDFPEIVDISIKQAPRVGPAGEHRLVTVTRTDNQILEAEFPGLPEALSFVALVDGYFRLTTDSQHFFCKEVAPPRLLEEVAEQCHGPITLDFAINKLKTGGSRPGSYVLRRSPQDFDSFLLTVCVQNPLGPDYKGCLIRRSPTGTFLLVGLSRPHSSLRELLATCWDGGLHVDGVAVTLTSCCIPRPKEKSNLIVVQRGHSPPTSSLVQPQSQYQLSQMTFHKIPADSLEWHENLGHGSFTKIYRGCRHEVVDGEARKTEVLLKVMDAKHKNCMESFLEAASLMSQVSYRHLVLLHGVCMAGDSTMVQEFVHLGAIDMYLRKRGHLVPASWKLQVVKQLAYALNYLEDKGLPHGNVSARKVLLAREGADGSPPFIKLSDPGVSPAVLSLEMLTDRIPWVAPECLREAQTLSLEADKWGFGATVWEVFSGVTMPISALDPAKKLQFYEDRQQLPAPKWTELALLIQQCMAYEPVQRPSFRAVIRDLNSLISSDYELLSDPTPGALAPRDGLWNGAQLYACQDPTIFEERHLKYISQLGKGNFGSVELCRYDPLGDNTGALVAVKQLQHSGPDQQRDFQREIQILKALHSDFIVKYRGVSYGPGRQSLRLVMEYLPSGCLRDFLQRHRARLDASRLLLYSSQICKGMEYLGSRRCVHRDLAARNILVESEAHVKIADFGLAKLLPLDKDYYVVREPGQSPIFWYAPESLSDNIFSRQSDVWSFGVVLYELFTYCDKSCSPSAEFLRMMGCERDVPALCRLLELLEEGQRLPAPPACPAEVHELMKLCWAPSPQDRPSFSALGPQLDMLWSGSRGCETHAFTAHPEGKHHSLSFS
Description: as §1, §2, §3, §4, §5, §6, §7

T1 sequence (O60674 whole entry): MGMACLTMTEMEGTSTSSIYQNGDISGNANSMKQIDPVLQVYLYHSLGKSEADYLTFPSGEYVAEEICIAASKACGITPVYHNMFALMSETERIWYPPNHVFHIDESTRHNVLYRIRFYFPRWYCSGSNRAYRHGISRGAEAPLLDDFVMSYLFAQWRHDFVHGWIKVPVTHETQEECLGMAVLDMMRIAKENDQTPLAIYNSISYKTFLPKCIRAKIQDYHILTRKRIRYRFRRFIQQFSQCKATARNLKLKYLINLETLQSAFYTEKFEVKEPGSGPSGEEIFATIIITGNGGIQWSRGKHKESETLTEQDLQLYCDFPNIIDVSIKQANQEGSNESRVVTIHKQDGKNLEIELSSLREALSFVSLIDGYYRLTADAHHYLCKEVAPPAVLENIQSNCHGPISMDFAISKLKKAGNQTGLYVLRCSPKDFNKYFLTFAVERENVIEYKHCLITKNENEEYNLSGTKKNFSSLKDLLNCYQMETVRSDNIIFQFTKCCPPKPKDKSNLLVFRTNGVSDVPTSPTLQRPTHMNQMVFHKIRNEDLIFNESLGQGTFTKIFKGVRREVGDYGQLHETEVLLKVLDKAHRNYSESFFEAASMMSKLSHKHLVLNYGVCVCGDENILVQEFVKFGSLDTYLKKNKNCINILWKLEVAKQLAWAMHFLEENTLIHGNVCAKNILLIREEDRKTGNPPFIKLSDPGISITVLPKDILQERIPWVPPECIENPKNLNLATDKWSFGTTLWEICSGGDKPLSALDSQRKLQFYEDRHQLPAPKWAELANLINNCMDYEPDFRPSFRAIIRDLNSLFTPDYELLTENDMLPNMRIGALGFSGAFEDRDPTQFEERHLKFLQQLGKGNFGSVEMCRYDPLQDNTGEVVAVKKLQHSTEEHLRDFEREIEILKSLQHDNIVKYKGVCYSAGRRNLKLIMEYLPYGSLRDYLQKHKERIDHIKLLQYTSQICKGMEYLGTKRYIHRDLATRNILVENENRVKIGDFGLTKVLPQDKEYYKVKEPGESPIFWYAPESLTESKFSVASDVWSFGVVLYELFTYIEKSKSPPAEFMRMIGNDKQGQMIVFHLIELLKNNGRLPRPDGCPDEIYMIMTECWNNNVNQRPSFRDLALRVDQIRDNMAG

SMILES | pIC50 (JAK2) | pIC50 (JAK3)
Cn1cc(Nc2ncc3cnn(Cc4cccc(F)c4F)c3n2)cn1 [Example 31, 1-(2,3-Difluorobenzyl)-N-(1-methyl-1H-pyrazol-4-yl)-1H-pyrazolo[3,4-d]pyrimidin-6-amine] | 5.00 to 6.00 | > 7.00
OCCn1cc(Nc2ncc3cnn(Cc4cc(F)ccc4F)c3n2)cn1 [Example 32, 2-(4-(1-(2,5-Difluorobenzyl)-1H-pyrazolo[3,4-d]pyrimidin-6-ylamino)-1H-pyrazol-1-yl)ethanol] | > 7.00 | > 7.00
OCCn1cc(Nc2ncc3cnn(Cc4cccc(F)c4F)c3n2)cn1 [Example 33, 2-(4-(1-(2,3-Difluorobenzyl)-1H-pyrazolo[3,4-d]pyrimidin-6-ylamino)-1H-pyrazol-1-yl)ethanol] | 6.00 to 7.00 | > 7.00
OCCn1cc(Nc2ncc3cnn(Cc4ccccc4F)c3n2)cn1 [Example 34, 2-(4-(1-(2-Fluorobenzyl)-1H-pyrazolo[3,4-d]pyrimidin-6-ylamino)-1H-pyrazol-1-yl)ethanol] | 6.00 to 7.00 | > 7.00
Cn1cc(Nc2ncc3cnn(-c4ccc(S(N)(=O)=O)cc4)c3n2)cn1 [Example 35, 4-(6-(1-Methyl-1H-pyrazol-4-ylamino)-1H-pyrazolo[3,4-d]pyrimidin-1-yl)benzenesulfonamide] | 5.00 to 6.00 | > 7.00
COc1nn(CC(F)F)cc1Nc1ncc2cnn(Cc3ccccc3C(N)=O)c2n1 [Example 36, 2-((6-(1-(2,2-Difluoroethyl)-3-methoxy-1H-pyrazol-4-ylamino)-1H-pyrazolo[3,4-d]pyrimidin-1-yl)methyl)benzamide] | ≤ 5.00 | 6.00 to 7.00
Cc1c(Nc2ncc3cnn(Cc4ccccc4C#N)c3n2)cnn1C [Example 37, 2-((6-(1,5-Dimethyl-1H-pyrazol-4-ylamino)-1H-pyrazolo[3,4-d]pyrimidin-1-yl)methyl)benzonitrile] | ≤ 5.00 | 6.00 to 7.00
COc1nn(CC(F)(F)F)cc1Nc1ncc2cnn(Cc3ccccc3C#N)c2n1 [Example 38] | ≤ 5.00 | 6.00 to 7.00
N#Cc1ccccc1Cn1ncc2cnc(Nc3cnn(CC(F)F)c3)nc21 [Example 39, 2-((6-(1-(2,2-Difluoroethyl)-1H-pyrazol-4-ylamino)-1H-pyrazolo[3,4-d]pyrimidin-1-yl)methyl)benzonitrile] | 5.00 to 6.00 | > 7.00
CNS(=O)(=O)c1ccc(-n2ncc3cnc(Nc4cnn(C)c4)nc32)cc1 [Example 40, N-Methyl-4-(6-(1-methyl-1H-pyrazol-4-ylamino)-1H-pyrazolo[3,4-d]pyrimidin-1-yl)benzenesulfonamide] | 5.00 to 6.00 | 6.00 to 7.00
Cn1cc(Nc2ncc3cnn(Cc4ccccc4C(=O)O)c3n2)cn1 [Example 41, 2-((6-(1-Methyl-1H-pyrazol-4-ylamino)-1H-pyrazolo[3,4-d]pyrimidin-1-yl)methyl)benzoic acid] | 5.00 to 6.00 | 6.00 to 7.00
NC(=O)c1ccccc1Cn1ncc2cnc(Nc3cnn(CC(F)F)c3)nc21 [Example 42, 2-((6-(1-(2,2-Difluoroethyl)-1H-pyrazol-4-ylamino)-1H-pyrazolo[3,4-d]pyrimidin-1-yl)methyl)benzamide] | 5.00 to 6.00 | > 7.00
Cc1nn(CC(F)F)cc1Nc1ncc2cnn(Cc3ccccc3C(N)=O)c2n1 [Example 43, 2-((6-(1-(2,2-Difluoroethyl)-3-methyl-1H-pyrazol-4-ylamino)-1H-pyrazolo[3,4-d]pyrimidin-1-yl)methyl)benzamide] | 5.00 to 6.00 | 6.00 to 7.00
COc1nn(CCO)cc1Nc1ncc2cnn(Cc3ccccc3C#N)c2n1 [Example 44, 2-((6-(1-(2-Hydroxyethyl)-3-methoxy-1H-pyrazol-4-ylamino)-1H-pyrazolo[3,4-d]pyrimidin-1-yl)methyl)benzonitrile] | 5.00 to 6.00 | > 7.00
Cn1cc(Nc2ncc3cnn(Cc4cccnc4F)c3n2)cn1 [Example 45, 1-((2-Fluoropyridin-3-yl)methyl)-N-(1-methyl-1H-pyrazol-4-yl)-1H-pyrazolo[3,4-d]pyrimidin-6-amine] | 5.00 to 6.00 | > 7.00
Cn1cc(Nc2ncc3cnn(Cc4ccncc4F)c3n2)cn1 [Example 46, 1-((3-Fluoropyridin-4-yl)methyl)-N-(1-methyl-1H-pyrazol-4-yl)-1H-pyrazolo[3,4-d]pyrimidin-6-amine] | 5.00 to 6.00 | 6.00 to 7.00
Cn1cc(Nc2ncc3cnn(Cc4ccc(F)cc4F)c3n2)cn1 [Example 47, 1-(2,4-Difluorobenzyl)-N-(1-methyl-1H-pyrazol-4-yl)-1H-pyrazolo[3,4-d]pyrimidin-6-amine] | 5.00 to 6.00 | 6.00 to 7.00
Cn1cc(Nc2ncc3cnn(CCc4ccccc4)c3n2)cn1 [Example 48, N-(1-Methyl-1H-pyrazol-4-yl)-1-phenethyl-1H-pyrazolo[3,4-d]pyrimidin-6-amine] | 5.00 to 6.00 | 6.00 to 7.00
COc1nn(CCO)cc1Nc1ncc2cnn(Cc3ccccc3F)c2n1 [Example 49, 2-(4-(1-(2-Fluorobenzyl)-1H-pyrazolo[3,4-d]pyrimidin-6-ylamino)-3-methoxy-1H-pyrazol-1-yl)ethanol] | 5.00 to 6.00 | > 7.00
COc1nn(CCO)cc1Nc1ncc2cnn(Cc3cccc(F)c3F)c2n1 [Example 50, 2-(4-(1-(2,3-Difluorobenzyl)-1H-pyrazolo[3,4-d]pyrimidin-6-ylamino)-3-methoxy-1H-pyrazol-1-yl)ethanol] | 5.00 to 6.00 | > 7.00
COc1nn(CCO)cc1Nc1ncc2cnn(Cc3cc(F)ccc3F)c2n1 [Example 51, 2-(4-(1-(2,5-Difluorobenzyl)-1H-pyrazolo[3,4-d]pyrimidin-6-ylamino)-3-methoxy-1H-pyrazol-1-yl)ethanol] | 5.00 to 6.00 | > 7.00
